Data: patent US11850238B2, “Use of a thienopyridone derivative in the treatment of adrenoleukodystrophy or adrenomyeloneuropathy” (POXEL, priority 2020, dated 2023)
Like-named read-outs stand apart in the source and are kept apart here.

Columns and labels:
[1] = tested on: AMN human patient-derived primary fibroblasts; test: Hexacosanoic acid (VLCFA) level in AMN patient-derived fibroblasts, LC-MS; type: cell-based; details: AMN patient-derived fibroblasts
Protocol: In order to compare the efficacy of PXL770 and metformin to lower very long chain fatty acids (VLCFA) in vitro, the study focuses on the level assessment of the hexacosanoic acid, which is the most prevalent VLCFA, in healthy control cells and in AMN human patient-derived primary fibroblasts. The cell lines were obtained from Coriell Cell Repositories. Fibroblasts were cultured in DMEM with 15% FBS. The cultures were split in 1:5 ratio. Fibroblasts from healthy patients were used as control. All treatments were in complete media containing fetal bovine serum (FBS, 15%). All cultured cells were maintained at 37° C. in 5% CO2.
VLCFA content was then measured as follows. Samples are adjusted to a final volume of 0.5-1 ml with LC-MS grade water and spiked with 10 ng of Lignoceric acid-d4 as an internal standard. The sample is acidified to pH 3-4 with dilute hydrochloric acid and extracted with isooctane-ethyl acetate (9:1) three times with equal volume. The extract is dried under nitrogen and the residue is reconstituted in methanol-water-ammonium acetate (75:25:10 mM).
Total fatty acids: After preparing the samples with internal standard as described above for free fatty acids, aqueous sodium hydroxide is added to a final concentration of 1 M. The mixture is incubated at 37° C. in dark under nitrogen for 3 h. The samples are then acidified, extracted, and reconstituted as described above.
LC-MS analysis of fatty acids: The reconstituted fatty acid extracts are subjected to HPLC on Targa C8 column (2×10 mm) using methanol-aqueous ammonium acetate (10 mM) solvent mixture. The column is eluted with a gradient of methanol (75 to 90%) over 8 min at a flow rate of 0.25 ml/min. The column eluent is directly introduced to mass analyzer (QTRAP5500) and monitored for fatty acids using published pseudo MRM method. Under these conditions, the VLCFA elute between 5 and 8 min. Each fatty acid is quantitated against the added internal standard.
The study planned different groups of patients. First, the evolution of hexacosanoic acid in fibroblasts is monitored in healthy control cells and in AMN human patient-derived primary fibroblasts; and in a second time a treatment of PXL770 was assigned to AMN human-derived primary fibroblasts in culture at different doses (PXL770: 0.1, 0.5, 1, 2, 3.5 and 5 μM; metformin: 100, 200, 300 and 400 μM) for one week and the level of hexacosanoic acid was measured.
The experiment described in Example 3 was reproduced with various thienopyridone compounds, namely: • PXL770: potassium 2-chloro-3-(5-hydroxytetralin-6-yl)-6-oxo-5-phenyl-7H-thieno[2,3-b]pyridin-4-olate • PXL700: 2-chloro-4-hydroxy-3-indan-5-yl-5-(3-pyridyl)-7H-thieno[2,3-b]pyridin-6-one • PXL702: 2-chloro-4-hydroxy-3-(4-hydroxyindan-5-yl)-5-phenyl-7H-thieno[2,3-b]pyridin-6-one • PXL695: 2-chloro-5-(3-fluorophenyl)-4-hydroxy-3-(4-hydroxyindan-5-yl)-7H-thieno[2,3-b]pyridin-6-one, • each tested at concentrations from 0.1 to 5 μM.
A one-way ANOVA with Dunnett's multiple comparison test was performed to assess the effect of PXL770 on brain's VLCFAs (**** p<0.0001, *** p<0.001). A Kruskal-Wallis test with Dunn's multiple comparison test was performed to assess the effect of PXL770 on plasma's VLCFAs (**** p<0.0001, […]).

ABCD2 [2] = details: ALD patient's derived fibroblasts, 5 mM; FIG. 11; cited from earlier work
[3] = tested on: AMN human patient-derived primary lymphocytes; details: AMN patient's derived lymphocytes, 5 mM, 7 days of treatment; FIG. 9; cited from earlier work
ABCD2 [4] = details: AMN patient's derived fibroblasts, 5 mM; FIG. 11; cited from earlier work
ABCD2 [5] = details: ABCD1-KO mice glial cells, 100 μM; FIG. 12; cited from earlier work
cultured fibroblasts = details: cited from earlier work
[6] = tested on: ALD patient-derived lymphocytes; details: ALD patient's derived lymphocytes, 5 mM, 7 days of treatment; FIG. 9; cited from earlier work
[7] = concentrations from 0.1 to 5 μM, FIG. 14

O=c1[nH]c2sc(Cl)c(-c3ccc4c(c3O)CCC4)c2c(O)c1-c1cccc(F)c1 [PXL695, 2-chloro-5-(3-fluorophenyl)-4-hydroxy-3-(4-hydroxyindan-5-yl)-7H-thieno[2,3-b]pyridin-6-one]
VLCFA levels [1, 7]: comparable decrease

O=c1[nH]c2sc(Cl)c(-c3ccc4c(c3)CCC4)c2c(O)c1-c1cccnc1 [PXL700, 2-chloro-4-hydroxy-3-indan-5-yl-5-(3-pyridyl)-7H-thieno[2,3-b]pyridin-6-one, reference compound]
VLCFA levels [1, 7]: no or a very limited effect

O=c1[nH]c2sc(Cl)c(-c3ccc4c(c3O)CCC4)c2c(O)c1-c1ccccc1 [PXL702, 2-chloro-4-hydroxy-3-(4-hydroxyindan-5-yl)-5-phenyl-7H-thieno[2,3-b]pyridin-6-one]
VLCFA levels [1, 7]: comparable decrease

CN(C)C(=N)N=C(N)N [metformin]
ABCD2 protein expression (ABCD2 [2]): only slightly increased
decrease of VLCFA content [3]: −29%
ABCD2 protein expression (ABCD2 [4]): only slightly increased
VLCFA levels ([1]; 400 μM, compared with thienopyridones at 5 μM, FIG. 15): no or a very limited effect
ABCD2 protein levels (ABCD2 [5]): limited increase
dose at which efficacy is observed (cultured fibroblasts): at least 100 μM
decrease of VLCFA content [6]: −42%
